A word on the EC50: it is the concentration needed to bring the measured effect to its halfway point.

Consider 18 compounds from US8574563B2 (Bristol-Myers Squibb Company, priority 2006, dated 2013).

SMILES strings stand for the structures.

This test deals with HCV 1b-377-neo replicon cells. Briefly: HCV replicon assay, HCV 1b-377-neo replicon cells (1b FRET). Type of test: cell-based, Hepatitis C virus genotype 1b. Particulars: Hepatitis C virus, HCV 1b-377-neo replicon cells; HCV 1b genotype; read-out: EC50 range against HCV 1b (Table 2, Range). The essentials:
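Compounds tested in HCV genotype 1b-377-neo replicon cells with a FRET read-out. Cells resistant to a reference NS5A inhibitor through a Y2065H NS5A mutation were run alongside wild-type cells.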
In general terms: In antiviral work, replicon cells carry a viral genome segment that copies itself.

Take `COC(=O)N[C@H](C(=O)N1[C@@H]2C[C@@H]2C[C@H]1c1ncc(-c2ccc(-c3ccc(-c4cnc([C@@H]5C[C@H]6C[C@H]6N5C(=O)CCCC[C@@H]5SC[C@@H]6NC(=O)N[C@@H]65)[nH]4)cc3)cc2)[nH]1)C(C)C` [Example M139]: the EC50 is 0.001 to 0.999 nM. Regarding `CC(=O)N[C@H](C(=O)N1[C@@H]2C[C@@H]2C[C@H]1c1ncc(-c2ccc(-c3ccc(-c4cnc([C@@H]5C[C@H]6C[C@H]6N5C(=O)[C@@H](NC(C)=O)C(C)C)[nH]4)cc3)cc2)[nH]1)C(C)C` [Example M140, N-((1S)-1-(((1R,3S,5R)-3-(4-(4′-(2-((1R,3S,5R)-2-((2S)-2-acetamido-3-methylbutanoyl)-2-azabicyclo[3.1.0]hex-3-yl)-1H-imidazol-4-yl)-4-biphenylyl)-1H-imidazol-2-yl)-2-azabicyclo[3.1.0]hex-2-yl)carbonyl)-2-methylpropyl)acetamide], the EC50 was 0.001 to 0.999 nM. As for `CC(C)[C@H](N)C(=O)N1[C@@H]2C[C@@H]2C[C@H]1c1nc(-c2ccc(-c3ccc(-c4cnc([C@@H]5C[C@H]6C[C@H]6N5C(=O)[C@@H](N)C(C)C)[nH]4)cc3)cc2)c[nH]1` [Example M140a-i, (2S)-1-((1R,3S,5R)-3-(4-(4′-(2-((1R,3S,5R)-2-((2S)-2-amino-3-methylbutanoyl)-2-azabicyclo[3.1.0]hex-3-yl)-1H-imidazol-5-yl)-4-biphenylyl)-1H-imidazol-2-yl)-2-azabicyclo[3.1.0]hex-2-yl)-3-methyl-1-oxo-2-butanamine], the EC50 is 1 to 99 nM. In the case of `CC(C)[C@H](NC(=O)OC(C)(C)C)C(=O)N1[C@@H]2C[C@@H]2C[C@H]1c1nc(-c2ccc(-c3ccc(-c4c[nH]c([C@@H]5C[C@H]6C[C@H]6N5C(=O)[C@@H](NC(=O)OC(C)(C)C)C(C)C)n4)cc3)cc2)c[nH]1` [Example M140a-ii, tert-butyl ((1S)-1-(((1R,3S,5R)-3-(4-(4′-(2-((1R,3S,5R)-2-((2S)-2-((tert-butoxycarbonyl)amino)-3-methylbutanoyl)-2-azabicyclo[3.1.0]hex-3-yl)-1H-imidazol-4-yl)-4-biphenylyl)-1H-imidazol-2-yl)-2-azabicyclo[3.1.0]hex-2-yl)carbonyl)-2-methylpropyl)carbamate] it was 1 to 99 nM; in that of `CC(C)[C@H](NC(=O)C1CC1)C(=O)N1[C@@H]2C[C@@H]2C[C@H]1c1ncc(-c2ccc(-c3ccc(-c4cnc([C@@H]5C[C@H]6C[C@H]6N5C(=O)[C@@H](NC(=O)C5CC5)C(C)C)[nH]4)cc3)cc2)[nH]1` [Example M141, N-((1S)-1-(((1R,3S,5R)-3-(4-(4′-(2-((1R,3S,5R)-2-((2S)-2-((cyclopropylcarbonyl)amino)-3-methylbutanoyl)-2-azabicyclo[3.1.0]hex-3-yl)-1H-imidazol-4-yl)-4-biphenylyl)-1H-imidazol-2-yl)-2-azabicyclo[3.1.0]hex-2-yl)carbonyl)-2-methylpropyl)cyclopropanecarbamate], 1 to 99 nM; in that of `CC(C)[C@@H](NC(=O)OC(C)(C)C)C(=O)N1[C@@H]2C[C@@H]2C[C@H]1c1nc(-c2ccc(-c3ccc(-c4c[nH]c([C@@H]5C[C@H]6C[C@H]6N5C(=O)[C@H](NC(=O)OC(C)(C)C)C(C)C)n4)cc3)cc2)c[nH]1` [Example M142, tert-butyl ((1R)-1-(((1R,3S,5R)-3-(4-(4′-(2-((1R,3S,5R)-2-((2R)-2-((tert-butoxycarbonyl)amino)-3-methylbutanoyl)-2-azabicyclo[3.1.0]hex-3-yl)-1H-imidazol-4-yl)-4-biphenylyl)-1H-imidazol-2-yl)-2-azabicyclo[3.1.0]hex-2-yl)carbonyl)-2-methylpropyl)carbamate], 1 to 99 nM.

For the compound `CC(=O)N[C@@H](C(=O)N1[C@@H]2C[C@@H]2C[C@H]1c1nc(-c2ccc(-c3ccc(-c4c[nH]c([C@@H]5C[C@H]6C[C@H]6N5C(=O)[C@H](NC(C)=O)C(C)C)n4)cc3)cc2)c[nH]1)C(C)C` [Example M143, N-((1R)-1-(((1R,3S,5R)-3-(4-(4′-(2-((1R,3S,5R)-2-((2R)-2-acetamido-3-methylbutanoyl)-2-azabicyclo[3.1.0]hex-3-yl)-1H-imidazol-4-yl)-4-biphenylyl)-1H-imidazol-2-yl)-2-azabicyclo[3.1.0]hex-2-yl)carbonyl)-2-methylpropyl)acetamide], the EC50 is 1 to 99 nM. For the compound `CC(C)[C@H](Nc1ncccn1)C(=O)N1[C@@H]2C[C@@H]2C[C@H]1c1ncc(-c2ccc(-c3ccc(-c4cnc([C@@H]5C[C@H]6C[C@H]6N5C(=O)[C@@H](Nc5ncccn5)C(C)C)[nH]4)cc3)cc2)[nH]1` [Example M144, N,N′-(4,4′-biphenyldiylbis(1H-imidazole-4,2-diyl(1R,3S,5R)-2-azabicyclo[3.1.0]hexane-3,2-diyl((2S)-3-methyl-1-oxo-1,2-butanediyl)))di(2-pyrimidinamine)], the EC50 is 0.001 to 0.999 nM. On to `COC(=O)N[C@H](C(=O)N1CC2(CC2)C[C@H]1c1ncc(-c2ccc(-c3ccc(-c4cnc([C@@H]5CC6(CC6)CN5C(=O)[C@@H](NC(=O)OC)C(C)C)[nH]4)cc3)cc2)[nH]1)C(C)C` [Example M145], for which the EC50 lay within 0.001 to 0.999 nM. In the case of `COC(=O)NCC(=O)N1CC2(CC2)C[C@H]1c1nc(-c2ccc(-c3ccc(-c4c[nH]c([C@@H]5CC6(CC6)CN5C(=O)CNC(=O)OC)n4)cc3)cc2)c[nH]1` [Example M146, methyl (2-((6S)-6-(4-(4′-(2-((6S)-5-(((methoxycarbonyl)amino)acetyl)-5-azaspiro[2.4]hept-6-yl)-1H-imidazol-4-yl)-4-biphenylyl)-1H-imidazol-2-yl)-5-azaspiro[2.4]hept-5-yl)-2-oxoethyl)carbamate], the EC50 fell in the range of 0.001 to 0.999 nM.

As for `COC(=O)N[C@@H](C)C(=O)N1CC2(CC2)C[C@H]1c1nc(-c2ccc(-c3ccc(-c4c[nH]c([C@@H]5CC6(CC6)CN5C(=O)[C@H](C)NC(=O)OC)n4)cc3)cc2)c[nH]1` [Example M147, methyl ((1S)-2-((6S)-6-(4-(4′-(2-((6S)-5-(N-(methoxycarbonyl)-L-alanyl)-5-azaspiro[2.4]hept-6-yl)-1H-imidazol-4-yl)-4-biphenylyl)-1H-imidazol-2-yl)-5-azaspiro[2.4]hept-5-yl)-1-methyl-2-oxoethyl)carbamate], the concentration giving a half-maximal response (EC50) was in the range of 0.001 to 0.999 nM.

Regarding `CC[C@H](NC(=O)OC)C(=O)N1CC2(CC2)C[C@H]1c1nc(-c2ccc(-c3ccc(-c4c[nH]c([C@@H]5CC6(CC6)CN5C(=O)[C@H](CC)NC(=O)OC)n4)cc3)cc2)c[nH]1` [Example M148, dimethyl (4,4′-biphenyldiylbis(1H-imidazole-4,2-diyl(6S)-5-azaspiro[2.4]heptane-6,5-diyl((2S)-1-oxo-1,2-butanediyl)))biscarbamate], the EC50 is 0.001 to 0.999 nM. `COC(=O)N[C@@H](C(=O)N1CC2(CC2)C[C@H]1c1nc(-c2ccc(-c3ccc(-c4c[nH]c([C@@H]5CC6(CC6)CN5C(=O)[C@H](NC(=O)OC)C(C)C)n4)cc3)cc2)c[nH]1)C(C)C` [Example M149, methyl ((1R)-1-(((6S)-6-(4-(4′-(2-((6S)-5-((2R)-2-((methoxycarbonyl)amino)-3-methylbutanoyl)-5-azaspiro[2.4]hept-6-yl)-1H-imidazol-4-yl)-4-biphenylyl)-1H-imidazol-2-yl)-5-azaspiro[2.4]hept-5-yl)carbonyl)-2-methylpropyl)carbamate]: the EC50 was in the range of 1 to 99 nM.

`COC(=O)N[C@@H](C(=O)N1CC2(CC2)C[C@H]1c1nc(-c2ccc(-c3ccc(-c4c[nH]c([C@@H]5CC6(CC6)CN5C(=O)[C@H](NC(=O)OC)c5ccccc5)n4)cc3)cc2)c[nH]1)c1ccccc1` [Example M150, dimethyl (4,4′-biphenyldiylbis(1H-imidazole-4,2-diyl(6S)-5-azaspiro[2.4]heptane-6,5-diyl((1R)-2-oxo-1-phenyl-2,1-ethanediyl)))biscarbamate]: the EC50 was 0.001 to 0.999 nM. In the case of `COC(=O)N[C@H](C(=O)N1[C@@H](C)CC[C@H]1c1ncc(-c2ccc(-c3ccc(-c4cnc([C@@H]5CC[C@H](C)N5C(=O)[C@@H](NC(=O)OC)C(C)C)[nH]4)cc3)cc2)[nH]1)C(C)C` [Example M151, methyl ((1S)-1-(((2S,5S)-2-(4-(4′-(2-((2S,5S)-1-((2S)-2-((methoxycarbonyl)amino)-3-methylbutanoyl)-5-methyl-2-pyrrolidinyl)-1H-imidazol-4-yl)-4-biphenylyl)-1H-imidazol-2-yl)-5-methyl-1-pyrrolidinyl)carbonyl)-2-methylpropyl)carbamate], the EC50 lay in the range of 0.001 to 0.999 nM.

`COC(=O)N[C@@H](C(=O)N1[C@@H](C)CC[C@H]1c1nc(-c2ccc(-c3ccc(-c4c[nH]c([C@@H]5CC[C@H](C)N5C(=O)[C@H](NC(=O)OC)c5ccccc5)n4)cc3)cc2)c[nH]1)c1ccccc1` [Example M153, dimethyl (4,4′-biphenyldiylbis(1H-imidazole-4,2-diyl((2S,5S)-5-methyl-2,1-pyrrolidinediyl)((1R)-2-oxo-1-phenyl-2,1-ethanediyl)))biscarbamate]: the EC50 lay within 0.001 to 0.999 nM. For the compound `CC[C@H](NC(=O)OC)C(=O)N1[C@@H](C)CC[C@H]1c1nc(-c2ccc(-c3ccc(-c4c[nH]c([C@@H]5CC[C@H](C)N5C(=O)[C@H](CC)NC(=O)OC)n4)cc3)cc2)c[nH]1` [Example M154, dimethyl (4,4′-biphenyldiylbis(1H-imidazole-4,2-diyl((2S,5S)-5-methyl-2,1-pyrrolidinediyl)((2S)-1-oxo-1,2-butanediyl)))biscarbamate], the EC50 lay within 0.001 to 0.999 nM.

`COC(=O)NCC(=O)N1[C@@H](C)CC[C@H]1c1nc(-c2ccc(-c3ccc(-c4c[nH]c([C@@H]5CC[C@H](C)N5C(=O)CNC(=O)OC)n4)cc3)cc2)c[nH]1` [Example M155, methyl (2-((2S,5S)-2-(4-(4′-(2-((2S,5S)-1-(((methoxycarbonyl)amino)acetyl)-5-methyl-2-pyrrolidinyl)-1H-imidazol-4-yl)-4-biphenylyl)-1H-imidazol-2-yl)-5-methyl-1-pyrrolidinyl)-2-oxoethyl)carbamate]: the EC50 was in the range of 1 to 99 nM.
